Reference: ChEMBL document CHEMBL1201862, “PubChem BioAssay data set” (2004)
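These data come from cells grown in 96-well plates and exposed to compound for 48 hours at five concentrations. GI50: concentration for 50% inhibition of growth.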 Activity calls are given as the source filed them. No stated cut-off is given here; in the data, active = GI50 up to about 1.1 µM and inactive = higher.

Legend:
Test in all cases: DTP human tumour cell line panel, 48 h
[1] = tested on: 786-0
[2] = tested on: A498
[3] = tested on: CAKI-1
[4] = tested on: CCRF-CEM
[5] = tested on: HOP-92
[6] = tested on: KM12
[7] = tested on: MOLT-4
[8] = tested on: NCI-H226
[9] = tested on: OVCAR-5
[10] = tested on: SF-268
[11] = tested on: SK-MEL-28
[12] = tested on: SK-OV-3
[13] = tested on: SN12C
[14] = tested on: SNB-78
[15] = tested on: TK-10
[16] = tested on: UACC-257
[17] = tested on: UO-31
[18] = tested on: HL-60
[19] = tested on: NCI/ADR-RES
[20] = tested on: SR

Measured: GI50

CC1(C)NC(=O)N(CCCCCCN2C(=O)NC(C)(C)C2=O)C1=O
inactive: [1] > 100 µM | [2] > 100 µM | [3] > 100 µM | [4] > 100 µM | [5] > 100 µM | [6] > 100 µM | [7] > 100 µM | [8] > 100 µM | [9] > 100 µM | [10] > 100 µM | [11] > 100 µM | [12] > 100 µM | [13] > 100 µM | [14] > 100 µM | [15] > 100 µM | [16] > 100 µM | [17] > 100 µM

COC1CC(OC2CCC3(C)C(CCC45CCC(C6=CC(=O)OC6)C(C)(CCC43)C5=O)C2)OC(C)C1O (stereo not drawn)
inactive: [1] 23.6 µM | [2] 71.4 µM | [3] 32.6 µM | [4] 18.4 µM | [18] 18.8 µM | [5] 81.5 µM | [6] 64.4 µM | [7] 32.1 µM | [8] 53.1 µM | [19] 32.5 µM | [9] 40.8 µM | [10] 17.5 µM | [11] > 100 µM | [12] 46.1 µM | [13] 23.5 µM | [20] 28.1 µM | [15] 51.2 µM | [16] > 100 µM | [17] 16.5 µM

O=C(CO)CC(=O)C(=O)Nc1ccccc1
inactive: [1] > 100 µM | [4] > 100 µM | [18] > 100 µM | [5] > 100 µM | [6] > 100 µM | [7] > 100 µM | [8] > 100 µM | [9] > 100 µM | [10] > 100 µM | [11] > 100 µM | [12] > 100 µM | [13] > 100 µM | [14] > 100 µM | [20] > 100 µM | [15] > 100 µM | [16] > 100 µM | [17] > 100 µM

O=C1CSC(c2cccs2)N1c1nc2cc3sc(N4C(=O)CSC4c4cccs4)nc3cc2s1 (stereo not drawn)
inactive: [1] > 50 µM | [2] > 50 µM | [3] 47.4 µM | [4] 25.2 µM | [18] > 50 µM | [5] > 50 µM | [6] > 50 µM | [7] 6.4 µM | [8] 6.38 µM | [19] 43.1 µM | [9] > 50 µM | [10] > 50 µM | [11] > 50 µM | [12] > 50 µM | [13] 26.4 µM | [20] 5.45 µM | [15] > 50 µM | [16] > 50 µM | [17] 30.9 µM

CCCCCCCCCCCCCCCC(=O)OCC1OC(n2cc(F)c(=O)[nH]c2=O)C(NC(=O)OCc2ccccc2)C(O)C1O (stereo not drawn)
inactive: [1] 18.7 µM | [2] 18.8 µM | [3] 16.3 µM | [4] 11 µM | [18] 20.2 µM | [5] 15.9 µM | [6] 20.8 µM | [7] 18.2 µM | [9] 19.1 µM | [10] 23.4 µM | [12] 24.1 µM | [13] 19.9 µM | [14] 20.6 µM | [15] 19.6 µM | [17] 19.5 µM

O=c1nc(N2CCNCC2)oc2cc(Cl)oc(=O)c12
inactive: [1] 3.34 µM | [2] 20.8 µM | [3] 2.59 µM | [4] 1.83 µM | [18] 1.9 µM | [5] 3.94 µM | [6] 5.96 µM | [7] 1.76 µM | [8] 15.4 µM | [19] 6.47 µM | [9] 15.5 µM | [10] 3.89 µM | [11] 3.13 µM | [12] 12.3 µM | [13] 6.11 µM | [20] 1.65 µM | [15] 9.02 µM | [16] 7.57 µM | [17] 7.67 µM

O=c1/c(=C/c2ccc3c(c2)OCO3)sc2nnc(-c3ccco3)n12
inactive: [1] > 100 µM | [2] > 100 µM | [3] > 100 µM | [4] > 100 µM | [18] > 100 µM | [6] > 100 µM | [7] > 100 µM | [8] > 100 µM | [9] > 100 µM | [10] > 100 µM | [11] > 100 µM | [12] > 100 µM | [13] > 100 µM | [14] > 100 µM | [15] > 100 µM | [16] 15.3 µM | [17] > 100 µM

C=CCCC(O)c1cc(C)c(O)c(C)c1 (stereo not drawn)
inactive: [1] > 100 µM | [2] > 100 µM | [4] > 100 µM | [18] > 100 µM | [6] > 100 µM | [7] > 100 µM | [8] > 100 µM | [9] > 100 µM | [10] > 100 µM | [11] > 100 µM | [12] > 100 µM | [13] > 100 µM | [14] > 100 µM | [15] > 100 µM | [16] > 100 µM | [17] > 100 µM

Cc1nnc(N/N=C(/C(=O)C(C#N)c2ccc(Cl)cc2)C(C#N)c2ccc(Cl)cc2)n1N (stereo not drawn)
inactive: [1] 17.4 µM | [3] 20.8 µM | [4] 35.6 µM | [18] 22.5 µM | [5] > 100 µM | [6] 18.7 µM | [7] 31.7 µM | [8] 16.1 µM | [9] 18.5 µM | [10] 24.1 µM | [11] 18.7 µM | [13] 19.3 µM | [14] 24.1 µM | [15] 20 µM | [16] 17.4 µM | [17] 17.7 µM

CCOC(=O)C(=CNc1ccc(F)c(F)c1)C(=O)OCC
inactive: [1] > 100 µM | [2] > 100 µM | [3] > 100 µM | [4] 54.5 µM | [18] 66.1 µM | [5] > 100 µM | [6] > 100 µM | [7] 46 µM | [8] > 100 µM | [19] > 100 µM | [9] > 100 µM | [10] > 100 µM | [11] > 100 µM | [12] > 100 µM | [13] > 100 µM | [20] 39.2 µM | [15] > 100 µM | [16] > 100 µM | [17] 55.3 µM

O=[N+]([O-])c1cc(Cl)ccc1S(=O)(=O)c1ccc(Cl)cc1[N+](=O)[O-]
inactive: [1] 15.5 µM | [3] 19.7 µM | [4] 24.1 µM | [18] 19.9 µM | [5] 18.5 µM | [6] 14.2 µM | [7] 25 µM | [8] 12.4 µM | [9] 19.5 µM | [10] 15 µM | [11] 18.1 µM | [12] 15.8 µM | [13] 15.7 µM | [14] 16.1 µM | [20] 4.19 µM | [15] 17.6 µM | [16] 13.5 µM | [17] 17.1 µM

O=C(CCC(=O)Nc1ccc(Cl)c(Cl)c1)CC(=O)c1ccc(F)cc1
inactive: [1] > 100 µM | [3] > 100 µM | [4] > 100 µM | [18] > 100 µM | [5] > 100 µM | [6] > 100 µM | [7] > 100 µM | [8] > 100 µM | [9] > 100 µM | [10] > 100 µM | [11] > 100 µM | [12] > 100 µM | [13] > 100 µM | [14] > 100 µM | [20] > 100 µM | [16] > 100 µM | [17] > 100 µM

Cc1ccc2c(c1C)C(=O)C1(C2)Cc2ccc3c(c2C1=O)CCC3 (stereo not drawn)
inactive: [1] > 100 µM | [2] > 100 µM | [3] > 100 µM | [4] > 100 µM | [18] > 100 µM | [5] > 100 µM | [6] > 100 µM | [7] > 100 µM | [8] > 100 µM | [19] > 100 µM | [9] > 100 µM | [10] > 100 µM | [11] > 100 µM | [12] > 100 µM | [13] > 100 µM | [20] > 100 µM | [15] > 100 µM | [16] > 100 µM | [17] > 100 µM

NCCOCCOCC(=O)O
inactive: [1] > 100 µM | [3] > 100 µM | [5] > 100 µM | [6] > 100 µM | [7] > 100 µM | [8] > 100 µM | [9] > 100 µM | [10] > 100 µM | [11] > 100 µM | [12] > 100 µM | [13] > 100 µM | [14] > 100 µM | [20] > 100 µM | [15] > 100 µM | [16] > 100 µM | [17] > 100 µM

COc1ccc2c3c([nH]c2c1)[C@H](C=C(C)C)N1C(=O)[C@@H]2CCCN2C(=O)[C@@H]1C3 [FUMITREMORGIN]
inactive: [1] 48 µM | [2] > 100 µM | [3] > 100 µM | [4] > 100 µM | [18] > 100 µM | [5] 38.7 µM | [6] > 100 µM | [7] > 100 µM | [8] > 100 µM | [19] > 100 µM | [9] > 100 µM | [10] 44 µM | [11] 22.2 µM | [12] 29.6 µM | [13] > 100 µM | [20] > 100 µM | [15] 29.1 µM | [16] > 100 µM | [17] > 100 µM
